EP0414533A1, “Use of iodopropargyl esters of alpha-amino acid derivatives as antimicrobial agents” (ROHM AND HAAS COMPANY, priority 1989, dated 1991)
≈ marks a conversion by molar mass, not a printed value. Where two headings read alike, the source gives them in different places. One block for each compound: values may come before it.

Key:
[1] = test system: Aspergillus niger (ANIG); test: Minimum inhibitory concentration (MIC), broth two-fold serial dilution test; type: cell-based; settings: Aspergillus niger, IIIB, trypticase soy broth (complex media); Table IIIb; read-out: MIC (F) ANIG
[2] = test system: Aureobasidium pullulans (APUL); test: as above; type: cell-based; settings: Aureobasidium pullulans, IIIB, trypticase soy broth (complex media); Table IIIb; read-out: MIC (F) APUL
[3] = test system: MIXED COOLING TOWER ALGAE; test: MIC test against mixed cooling tower algae; type: cell-based, green algae and blue-green bacteria; settings: Table VIII
Description: The algae culture contains green algae and blue-green bacteria, and is obtained from a cooling tower in Spring House, Pennsylvania. The algae culture is grown in Allen's medium on a rotary shaker under flourescent room lighting. This culture is further diluted with Allen's medium and then added to the test vessel.

[4] = test system: 8 FUNGI; test: Microbicides secondary test against 8 fungi on Mycophile Agar at pH 5.0 (Table VI); type: cell-based; parameters: key: 1= no growth; 0= growth of the indicated fungi at dose indicated in ppm; settings: for ANIG growth: Aspergillus niger; for APUL growth: Aureobasidium pullulans; for CGLO growth: Chaetomium globosum; for CRES growth: Cladosporium resinae; for GTRA growth: Gloeophyllum trabeum; for PFUN growth: Penicillium funiculosum; for RRUB growth: Rhodotorula rubra; for SSER growth: Sacharomyces cerevisiae
Text: The results of the minimum inhibitory concentration (MIC) tests of compounds of this invention are shown in Tables IIIa IIIb, IIIc, V, VI, VII, and VIII against the microorganisms shown in Table IX.

[5] = test system: THREE FUNGI; test: MIC test against three fungi in Mycophile Broth, pH 5.0, read after 8 days (Table VII); type: cell-based; settings: 192 h, serial dilutions from 50 ppm, read after 8 days of incubation
[6] = test system: Pseudomonas fluorescens (PSFL); test: Minimum inhibitory concentration (MIC), broth two-fold serial dilution test; settings: Pseudomonas fluorescens, IIIB, read-out: MIC (G-) PSFL, trypticase soy broth (complex media); Table IIIb
[7] = test system: Pseudomonas aerugenosa (PSAE); test: as above; settings: Pseudomonas, IIIB, read-out: MIC (G-) PSAE, trypticase soy broth (complex media); Table IIIb
[8] = test system: Escherichia coli (ECOL); test: as above; settings: Escherichia coli, IIIB, read-out: MIC (G-) ECOL, trypticase soy broth (complex media); Table IIIb
[9] = test system: Staphylococcus aureus (SAUR); test: as above; settings: Staphylococcus aureus, IIIB, read-out: MIC (G+) SAUR, trypticase soy broth (complex media); Table IIIb
[10] = Aspergillus niger, read-out: MIC ANIG
[11] = Aureobasidium pullulans, read-out: MIC APUL
[12] = Gloeophyllum trabeum, read-out: MIC GTRA

- MIC [1]: 2 µg/mL (≈ 7.49 µM)
- MIC [2]: 8 µg/mL (≈ 30 µM)
- MIC [5, 10]: 12.5 µg/mL (≈ 46.8 µM)
- MIC [5, 11]: 25 µg/mL (≈ 93.6 µM)
- MIC [5, 12]: 3.2 µg/mL (≈ 12 µM)
- MIC [6]: 32 µg/mL (≈ 120 µM)
- MIC [7]: 63 µg/mL (≈ 236 µM)
- MIC [8]: 63 µg/mL (≈ 236 µM)
- MIC [9]: 63 µg/mL (≈ 236 µM)
SMILES: O=CNCC(=O)OCC#CI [Compound 32, N-formylglycine iodopropargyl ester]
- MIC [3]: 6.2 µg/mL (≈ 23.2 µM)
- ANIG growth ([4]; 0.2 PPM): 0
- ANIG growth ([4]; 1.0 PPM): 0
- ANIG growth ([4]; 2.5 PPM): 0
- ANIG growth ([4]; 25 PPM): 1
- APUL growth ([4]; 0.2 PPM): 0
- APUL growth ([4]; 1.0 PPM): 0
- APUL growth ([4]; 2.5 PPM): 0
- APUL growth ([4]; 25 PPM): 1
- CGLO growth ([4]; 0.2 PPM): 0
- CGLO growth ([4]; 1.0 PPM): 0
- CGLO growth ([4]; 2.5 PPM): 0
- CGLO growth ([4]; 25 PPM): 1
- CRES growth ([4]; 0.2 PPM): 0
- CRES growth ([4]; 1.0 PPM): 0
- CRES growth ([4]; 2.5 PPM): 0
- CRES growth ([4]; 25 PPM): 1
- GTRA growth ([4]; 0.2 PPM): 0
- GTRA growth ([4]; 1.0 PPM): 0
- GTRA growth ([4]; 2.5 PPM): 0
- GTRA growth ([4]; 25 PPM): 1
- PFUN growth ([4]; 0.2 PPM): 0
- PFUN growth ([4]; 1.0 PPM): 0
- PFUN growth ([4]; 2.5 PPM): 0
- PFUN growth ([4]; 25 PPM): 1
- RRUB growth ([4]; 0.2 PPM): 0
- RRUB growth ([4]; 1.0 PPM): 0
- RRUB growth ([4]; 2.5 PPM): 0
- RRUB growth ([4]; 25 PPM): 1
- SSER growth ([4]; 0.2 PPM): 0
- SSER growth ([4]; 1.0 PPM): 0
- SSER growth ([4]; 2.5 PPM): 0
- SSER growth ([4]; 25 PPM): 1

- MIC [1]: < 0.12 µg/mL
- MIC [2]: 8 µg/mL (≈ 21.9 µM)
- MIC [5, 10]: 1.6 µg/mL (≈ 4.38 µM)
- MIC [5, 11]: 12.5 µg/mL (≈ 34.2 µM)
- MIC [5, 12]: 3.2 µg/mL (≈ 8.76 µM)
- MIC [6]: 63 µg/mL (≈ 173 µM)
- MIC [7]: 125 µg/mL (≈ 342 µM)
- MIC [8]: > 250 µg/mL
- MIC [9]: 250 µg/mL (≈ 685 µM)
SMILES: CCCCCCCC(=O)NCC(=O)OCC#CI [Compound 34, N-octanoylglycine iodopropargyl ester]
- MIC [3]: 12.5 µg/mL (≈ 34.2 µM)
- ANIG growth ([4]; 0.2 PPM): 0
- ANIG growth ([4]; 1.0 PPM): 1
- ANIG growth ([4]; 2.5 PPM): 1
- ANIG growth ([4]; 25 PPM): 1
- APUL growth ([4]; 0.2 PPM): 0
- APUL growth ([4]; 1.0 PPM): 0
- APUL growth ([4]; 2.5 PPM): 0
- APUL growth ([4]; 25 PPM): 1
- CGLO growth ([4]; 0.2 PPM): 0
- CGLO growth ([4]; 1.0 PPM): 1
- CGLO growth ([4]; 2.5 PPM): 0
- CGLO growth ([4]; 25 PPM): 1
- CRES growth ([4]; 0.2 PPM): 0
- CRES growth ([4]; 1.0 PPM): 0
- CRES growth ([4]; 2.5 PPM): 0
- CRES growth ([4]; 25 PPM): 1
- GTRA growth ([4]; 0.2 PPM): 0
- GTRA growth ([4]; 1.0 PPM): 1
- GTRA growth ([4]; 2.5 PPM): 1
- GTRA growth ([4]; 25 PPM): 1
- PFUN growth ([4]; 0.2 PPM): 0
- PFUN growth ([4]; 1.0 PPM): 0
- PFUN growth ([4]; 2.5 PPM): 1
- PFUN growth ([4]; 25 PPM): 1
- RRUB growth ([4]; 0.2 PPM): 0
- RRUB growth ([4]; 1.0 PPM): 0
- RRUB growth ([4]; 2.5 PPM): 0
- RRUB growth ([4]; 25 PPM): 1
- SSER growth ([4]; 0.2 PPM): 0
- SSER growth ([4]; 1.0 PPM): 0
- SSER growth ([4]; 2.5 PPM): 0
- SSER growth ([4]; 25 PPM): 1

- MIC [1]: 2 µg/mL (≈ 6 µM)
- MIC [2]: 4 µg/mL (≈ 12 µM)
- MIC [5, 10]: 1.6 µg/mL (≈ 4.8 µM)
- MIC [5, 11]: 6.2 µg/mL (≈ 18.6 µM)
- MIC [5, 12]: 0.4 µg/mL (≈ 1.2 µM)
- MIC [6]: 63 µg/mL (≈ 189 µM)
- MIC [7]: 125 µg/mL (≈ 375 µM)
- MIC [8]: 125 µg/mL (≈ 375 µM)
- MIC [9]: 63 µg/mL (≈ 189 µM)
SMILES: C/C=C/C=C/C(=O)NCC(=O)OCC#CI [Compound 35, N-sorbylglycine iodopropargyl ester]
- MIC [3]: 6.2 µg/mL (≈ 18.6 µM)
- ANIG growth ([4]; 0.2 PPM): 0
- ANIG growth ([4]; 1.0 PPM): 1
- ANIG growth ([4]; 2.5 PPM): 1
- ANIG growth ([4]; 25 PPM): 1
- APUL growth ([4]; 0.2 PPM): 0
- APUL growth ([4]; 1.0 PPM): 0
- APUL growth ([4]; 2.5 PPM): 0
- APUL growth ([4]; 25 PPM): 1
- CGLO growth ([4]; 0.2 PPM): 0
- CGLO growth ([4]; 1.0 PPM): 1
- CGLO growth ([4]; 2.5 PPM): 1
- CGLO growth ([4]; 25 PPM): 1
- CRES growth ([4]; 0.2 PPM): 0
- CRES growth ([4]; 1.0 PPM): 0
- CRES growth ([4]; 2.5 PPM): 0
- CRES growth ([4]; 25 PPM): 1
- GTRA growth ([4]; 0.2 PPM): 0
- GTRA growth ([4]; 1.0 PPM): 1
- GTRA growth ([4]; 2.5 PPM): 1
- GTRA growth ([4]; 25 PPM): 1
- PFUN growth ([4]; 0.2 PPM): 0
- PFUN growth ([4]; 1.0 PPM): 0
- PFUN growth ([4]; 2.5 PPM): 1
- PFUN growth ([4]; 25 PPM): 1
- RRUB growth ([4]; 0.2 PPM): 0
- RRUB growth ([4]; 1.0 PPM): 0
- RRUB growth ([4]; 2.5 PPM): 1
- RRUB growth ([4]; 25 PPM): 1
- SSER growth ([4]; 0.2 PPM): 0
- SSER growth ([4]; 1.0 PPM): 0
- SSER growth ([4]; 2.5 PPM): 0
- SSER growth ([4]; 25 PPM): 1
